# Assays:
# [1] = test system: calvaria; experiment: Activity of inhibiting bone absorption (PTH-intensified calcium release from cultured calvaria); assay type: cell-based, dd mouse; conditions: Mus musculus, human PTH 1-34 1×10^-8 M, 96 hours, read-out: Inhibition Rate
# Method: A calvaria of a 5 to 6 day-old dd mouse was aseptically cut off, washed with Dulbecco's modified phosphate buffered saline not containing calcium and magnesium (manufactured by Gibco Oriental Co.) and separated along the sutura of its center. One half of the calvaria so separated was cultured in 1.5 ml of Dulbecco's modified Eagle medium (manufactured by Gibco Oriental Co.) containing 15% of thermally inactivated (at 56° C. for 20 minutes) horse serum and 2.5% of fetal calf serum. The test compound was dissolved in dimethyl sulfoxide, and 10 μl (final concentration: 1×10^-4 M or 1×10-^5 M) of the solution so prepared was added to the culture. Parathyroid hormone (human PTH 1-34, manufactured by Sigma Co.) was dissolved in 0.15 M sodium chloride solution (pH 3), and 3 μl (final concentration: 1×10^-8 M) of the solution so prepared was added to the culture. The cultivation was carried out for 96 hours at 37° C. in an atmosphere consisting of 95% of air and 5% of carbon dioxide. The culture medium was once replaced with a fresh one after 48 hours from the beginning of the cultivation. The concentration of dissolved calcium (i.e., absorption of bone) from the PTH-intensified bone was determined by measuring the quantity of calcium accumulated in the culture collected in 96 hours of cultivation, whereby the concentration of total calcium contained in the culture was measured with Calcium C-Test Wako (manufactured by Wako Pure Chemicals Co., Ltd.), and the inhibition rate was calculated therefrom in accordance with the equation set forth below. [formula] Cd : Total calcium concentration in the culture treated with both test compound and PTH
# Cp : Total calcium concentration in the culture treated with PTH alone
# Co Total calcium concentration in the culture treated with neither test compound nor PTH
# [2] = test system: cells obtained from the spleen of Balb/c mice sensitized with sheep red blood cells; experiment: Plaque Forming Cell Assay (inhibition of antibody production); assay type: cell-based, Balb/c strain male mice; conditions: for inhibition at 100 µM / inhibition at 10 µM: Mus musculus, Erythrocyte, inhibition of antibody production, read-out: Inhibition Rate
# Method: The method developed by Jerne [Science, 140, 405 (1963)] and Yamamoto, et al [Drugs. Exptl. Clin. res., 8, 5 (1982)] were modified for plaque forming cell assay.
# That is, Balb/c strain male mice (age of 7 weeks, Charles River Japan Inc.) were sensitized with 1×10^8 sheep red blood cells (Bio Test Research Institute) and the spleen was extirpated on the sixth or seventh day. The cells obtained from the spleen were treated with ACT solution (Tris-ammonium chloride isotonic buffer) to remove red blood cells. The cells were washed three times with RPMI-1640 medium (Nissui Pharmaceutical Co. . The cells (1×10^7) were incubated in RPMI-1640 medium containing 10% calf fetal serum (Gibco Co.), 50 μg/ml streptomycin, 50 IU/ml of penicillin, 2-mercaptoethanol (5×10^-5 M), sheep red blood cells (5×10^6 cells) and a test compound dissolved in dimethyl sulfoxide supplied on a microculture plate (NUNC Co., 24 wells) in a carbon dioxide gas incubator (TABAI ESPEC CORP) at 37° C. for 5 days.
# After completion of the incubation, the cells were transferred to a plastic test tube and centrifuged at 2000 rpm. After the supernatant was removed, the cells were resuspended in 1 ml of RPMI-1640 medium. The cell suspension was sealed in a Cunnigham chamber (Takahashi Giken Co.) together with sheep red blood cells and guinea pig complement (Cedarlane Research Institute) according to the method of Cunnigham [Immunology, 14, 599 (1968)] and incubated at 37° C. for 1 to 2 hours. Direct plaque forming cell (PFC) count was counted.
# A rate of inhibiting antibody production by the test compound was determined by the following equation. [formula] A : PFC count in the absence of test compound (dimethylsulfoxide alone) B : PFC count in the presence of test compound
# [3] = test system: dd-strain male mice; experiment: Acute toxicity test; assay type: in vivo; conditions: orally administered, mortality for 7 days
# Method: A test compound was orally administered to three dd-strain male mice weighting 20±1 g. The minimum lethal dose (MLD) was determined by observing the mortality for 7 days after the administration.
smiles,measurement,setting,value
"O=C(Nc1cccnc1)c1c(O)c2sccc2[nH]c1=O [Compound 1, 4,5-Dihydro-7-hydroxy-5-oxo-N-(3-pyridyl)thieno[3,2-b]-pyridine-6-carboxamide]",inhibition at 100 µM,[1],-1%
"O=C(Nc1ccncc1)c1c(O)c2sccc2[nH]c1=O [Compound 2, 4,5-Dihydro-7-hydroxy-5-oxo-N-(4-pyridyl)thieno[3,2-b]-pyridine-6-carboxamide]",inhibition at 100 µM,[1],51%
"CCCCn1c(=O)c(C(=O)Nc2ccncc2)c(O)c2sccc21 [Compound 3, 4-(n-Butyl)-4,5-dihydro-7-hydroxy-5-oxo-N-(4-pyridyl)thieno-[3,2-b]pyridine-6-carboxamide]",inhibition at 10 µM,[1],141%
same,Direct PFC Count (mean ± S.E.M.),[2]; 10^-4 M,101 ± 76
same,Direct PFC Count (mean ± S.E.M.),[2]; 10^-5 M,59 ± 38
same,inhibition at 100 µM,[2]; 10^-4 M,98%
same,inhibition at 10 µM,[2]; 10^-5 M,98.8%
"CCCCn1c(=O)c(C(=O)Nc2cccnc2)c(O)c2sccc21 [Compound 4, 4-(n-Butyl)-4,5-dihydro-7-hydroxy-5-oxo-N-(3-pyridyl)thieno-[3,2-b]pyridine-6-carboxamide]",inhibition at 10 µM,[1],58%
same,minimum lethal dose (MLD),[3],> 300 mg/kg
same,Direct PFC Count (mean ± S.E.M.),[2]; 10^-4 M,336 ± 124
same,Direct PFC Count (mean ± S.E.M.),[2]; 10^-5 M,395 ± 52
same,inhibition at 100 µM,[2]; 10^-4 M,93.3%
same,inhibition at 10 µM,[2]; 10^-5 M,92.1%
"CCCCn1c(=O)c(C(=O)Nc2ccncc2)c(O)c2ccsc21 [Compound 5, 7-(n-Butyl)-6,7-dihydro-4-hydroxy-6-oxo-N-(4-pyridyl)thieno-[2,3-b]pyridine-5-carboxamide]",inhibition at 10 µM,[1],53%
same,Direct PFC Count (mean ± S.E.M.),[2]; 10^-4 M,109 ± 77
same,Direct PFC Count (mean ± S.E.M.),[2]; 10^-5 M,227 ± 131
same,inhibition at 100 µM,[2]; 10^-4 M,97.8%
same,inhibition at 10 µM,[2]; 10^-5 M,95.5%
"CCCCn1c(=O)c(C(=O)Nc2cccnc2)c(O)c2ccsc21 [Compound 6, 7-(n-Butyl)-6,7-dihydro-4-hydroxy-6-oxo-N-(3-pyridyl)thieno-[2,3-b]pyridine-5-carboxamide]",inhibition at 10 µM,[1],38%
same,Direct PFC Count (mean ± S.E.M.),[2]; 10^-4 M,42 ± 29
same,Direct PFC Count (mean ± S.E.M.),[2]; 10^-5 M,59 ± 29
same,inhibition at 100 µM,[2]; 10^-4 M,99.2%
same,inhibition at 10 µM,[2]; 10^-5 M,98.8%
"O=C(Nc1ccncc1)c1c(O)c2ccsc2[nH]c1=O [Compound 7, 6,7-Dihydro-4-hydroxy-6-oxo-N-(4-pyridyl)thieno[2,3-b]-pyridine-5-carboxamide]",inhibition at 10 µM,[1],32%
same,minimum lethal dose (MLD),[3],> 300 mg/kg
"O=C(Nc1cccnc1)c1c(O)c2ccsc2[nH]c1=O [Compound 8, 6,7-Dihydro-4-hydroxy-6-oxo-N-(3-pyridyl)thieno[2,3-b]-pyridine-5-carboxamide]",inhibition at 10 µM,[1],18%

# Source: patent publication US5219864A, “Thienopyridine derivatives” (Kyowa Hakko Kogyo Co., Ltd., priority 1991, dated 1993)
